Reference: patent publication US6420353B1, “Use of 7 α-substituted steroid to treat neuropsychiatric, immune or endocrine disorders” (BTG International Limited, priority 1996, dated 2002)
Read-outs that look alike come from different tables or passages of the source.

Key:
Cyp7b [1] = biological target: T1, Cyp7b (Mus musculus, UniProt Q60991)
T1 sequence (Q60991 1-507): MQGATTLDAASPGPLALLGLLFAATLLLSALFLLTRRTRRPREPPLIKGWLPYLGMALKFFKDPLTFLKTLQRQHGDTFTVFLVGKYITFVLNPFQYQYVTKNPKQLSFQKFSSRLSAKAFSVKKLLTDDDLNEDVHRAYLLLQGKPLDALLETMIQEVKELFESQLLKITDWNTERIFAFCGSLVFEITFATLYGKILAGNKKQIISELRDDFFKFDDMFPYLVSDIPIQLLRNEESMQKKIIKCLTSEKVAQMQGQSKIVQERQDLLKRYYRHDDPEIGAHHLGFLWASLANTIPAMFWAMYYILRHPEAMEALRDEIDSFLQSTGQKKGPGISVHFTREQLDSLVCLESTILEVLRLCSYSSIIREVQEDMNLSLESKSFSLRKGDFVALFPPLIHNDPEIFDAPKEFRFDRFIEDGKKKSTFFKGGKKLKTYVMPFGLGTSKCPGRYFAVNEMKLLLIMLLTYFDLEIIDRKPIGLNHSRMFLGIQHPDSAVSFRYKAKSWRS

GR = biological target: T2, GR (Homo sapiens, UniProt P04150); assay: Cis-trans co-transfection assay (MMTV-LUC / pRShGR) in CHO cells; format: cell-based; conditions: in presence of a GR activating concentration of corticosterone, FIG. 4
T2 construct: expressed in transfected cells; host or cells: CHO cells, calcium phosphate transfection
T2 sequence (P04150 1-777): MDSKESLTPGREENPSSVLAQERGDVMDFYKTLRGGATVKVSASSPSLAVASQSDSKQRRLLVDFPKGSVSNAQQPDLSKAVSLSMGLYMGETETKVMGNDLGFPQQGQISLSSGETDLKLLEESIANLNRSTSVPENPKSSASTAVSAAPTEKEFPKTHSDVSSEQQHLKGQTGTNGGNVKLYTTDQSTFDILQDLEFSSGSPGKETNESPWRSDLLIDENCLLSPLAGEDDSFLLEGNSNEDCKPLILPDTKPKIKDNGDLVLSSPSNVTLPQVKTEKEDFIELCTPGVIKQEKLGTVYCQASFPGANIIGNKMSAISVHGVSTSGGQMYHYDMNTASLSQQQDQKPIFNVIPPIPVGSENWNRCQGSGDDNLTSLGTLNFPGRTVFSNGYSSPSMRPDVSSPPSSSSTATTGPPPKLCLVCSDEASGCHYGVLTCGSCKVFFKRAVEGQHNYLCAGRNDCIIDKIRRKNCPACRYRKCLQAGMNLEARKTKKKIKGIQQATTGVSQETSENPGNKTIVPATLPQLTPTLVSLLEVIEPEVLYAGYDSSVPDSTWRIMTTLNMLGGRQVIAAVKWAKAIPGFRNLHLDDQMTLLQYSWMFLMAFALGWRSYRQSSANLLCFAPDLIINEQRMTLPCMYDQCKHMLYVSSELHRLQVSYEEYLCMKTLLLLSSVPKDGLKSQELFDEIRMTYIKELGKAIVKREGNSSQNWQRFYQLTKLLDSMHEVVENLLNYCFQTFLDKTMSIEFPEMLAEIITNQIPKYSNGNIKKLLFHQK
Method: Chinese hamster ovary (CHO) cells were maintained and transfected in Dulbecco's modification of Eagle's medium (DMEM) supplemented with 15% foetal bovine serum, 100 IU/ml penicillin, 100 μg/ml streptomycin and […] L-glutamine (all Gibco BRL, Paisley, UK).
24 hours prior to transfection CHO cells were plated at a density of 3×10^5/60 mm dish (Costar UK). Cells were transfected by the clacium phosphate method. Briefly, 5 μg of MMTV-LUC and 1 μg of pRShGR or 5 μg of pSV2 as a control for transfection efficiency were made up to a total of 10 μg/plate of DNA with pGEM3. 30 μl of 2.5M CaCl2 was diluted ten-fold with sterile water and 300 μl was added to the DNA. […]
The following day the cells were washed in PBS, lysed with 0.3 ml of lysis buffer (25 mM Tris-phosphate pH 7.8, 2 mM DTT, 1% Triton X-100 and 10% glycerol), scraped, centrifuged and the supernatant assayed in duplicate in a Berthold luminometer in a total volume of 250 μl, comprising 40 μl of cell extract, 5 μl of 30 mM ATP, 100 μl of assay buffer (20 mM tricine, […] (MgCO3)4.Mg(OH)2.%H2O, 2.67 mM MgSO4, Q1 mM EDTA, 33.3 mM DTT, 0.2 mg/ml coenzyme A) and 105 μl luciferin (Promega UK) injected to initiate the reaction. Light emission was measured over 10 seconds and relative light units/microgram of protein was calculated.

Cyp7b [2] = biological target: T1, Cyp7b; assay: Catalytic activity of Cyp7b expressed in mammalian cell lines (NADPH-dependent conversion, TLC)
From the text: To examine the catalytic activity of the enzyme Cyp7b CDNAs were expressed in mammalian cell lines.

Cyp7b [3] = biological target: T1, Cyp7b; remark: listed apart in the source
[4] = substrate: C[C@]12CC[C@H](O)CC1=CC[C@@H]1[C@@H]2CC[C@]2(C)C(=O)CC[C@@H]12; assay: purified protein, by the assay type; conditions: other: cell extracts, NADPH-dependent conversion
[5] = relative to DHEA and pregnenolone
[6] = cell extracts, NADPH-dependent conversion

Q: Which “conversion of labelled steroid by Cyp7b microsomes to a lower mobility form on TLC” value (from here on “conversion … to a lower mobility form on TLC”) (Cyp7b [1]) does the source give for `CC(=O)[C@H]1CC[C@H]2[C@@H]3CCC4=CC(=O)CC[C@]4(C)[C@H]3CC[C@]12C` [progesterone] here?
A: at best inefficiently metabolised, if at all

Q: With `C[C@]12CC[C@H](O)CC1=C[C@@H](O)[C@@H]1[C@@H]2CC[C@]2(C)C(=O)CC[C@@H]12` [7HD, 7α-hydroxydehydroepi-androsterone] as the molecule, how does the “antagonism of corticosterone effect in activating GR-mediated transcription (fold induction of luciferase)” value (GR) read?
A: acts as an antagonist

Q: For `C[C@]12CC[C@H](O)C[C@@H]1CC[C@@H]1[C@@H]2CC[C@]2(C)[C@@H](O)CC[C@@H]12` [5α-androstane-3β, 17β-diol], which “activity of the expressed enzyme against the steroid as substrate” value (“activity of the expressed enzyme” below) (Cyp7b [2]; [5]) is on record?
A: less active

Q: Which results are given for `C[C@H](CCCC(C)(C)O)[C@H]1CC[C@H]2[C@@H]3CC=C4C[C@@H](O)CC[C@]4(C)[C@H]3CC[C@]12C` [25-hydroxycholesterol]?
A: conversion of labelled steroid by Cyp7b microsomes to a lower mobility form on TLC (Cyp7b [1]): converted by the enzymes; activity of the expressed enzyme against the steroid as substrate (Cyp7b [2]): less active

Q: For `C[C@]12CC[C@@H]3c4ccc(O)cc4CC[C@H]3[C@@H]1CC[C@@H]2O` [estradiol, 17β-estradiol], which “conversion … to a lower mobility form on TLC” value (Cyp7b [1]) is on record?
A: converted by the enzymes

Q: What about the “activity of the expressed enzyme” value (Cyp7b [2]) of the same molecule?
A: less active

Q: With `C[C@]12C[C@H](O)[C@H]3[C@@H](CCC4=CC(=O)CC[C@@]43C)[C@@H]1CC[C@@H]2C(=O)CO` [corticosterone] as the molecule, how does the “conversion … to a lower mobility form on TLC” value (Cyp7b [1]) read?
A: at best inefficiently metabolised, if at all

Q: What about the “activity of the expressed enzyme” value (Cyp7b [2]) of the same molecule?
A: low to undetectable activity

Q: For `C[C@]12CC[C@H](O)CC1=CC[C@@H]1[C@@H]2CC[C@]2(C)C(=O)CC[C@@H]12` [DHEA, dehydroepiandrosterone], which “conversion … to a lower mobility form on TLC” value (Cyp7b [1]) is on record?
A: converted

Q: What about the “antagonism of corticosterone effect in activating GR-mediated transcription (fold induction of luciferase)” value (GR) of the same molecule?
A: not

Q: Which results are given for `C[C@]12CC[C@H]3[C@@H](CCC4=CC(=O)CC[C@@]43C)[C@@H]1CC[C@@H]2O` [testosterone]?
A: conversion of labelled steroid by Cyp7b microsomes to a lower mobility form on TLC (Cyp7b [1]): at best inefficiently metabolised, if at all; activity of the expressed enzyme against the steroid as substrate (Cyp7b [2]; [5]): low to undetectable activity

Q: With `C[C@]12CCC(=O)C=C1CC[C@@H]1[C@@H]2[C@@H](O)C[C@@]2(C)[C@H]1CC[C@]2(O)C(=O)CO` [cortisol] as the molecule, how does the “conversion … to a lower mobility form on TLC” value (Cyp7b [1]) read?
A: at best inefficiently metabolised, if at all

Q: Which “conversion … to a lower mobility form on TLC” value (Cyp7b [1]) does the source give for `CC(=O)[C@H]1CC[C@H]2[C@@H]3CC=C4C[C@@H](O)CC[C@]4(C)[C@H]3CC[C@]12C` [pregnenolone] here?
A: converted by the enzymes

Q: What about the “release of 3H into the aqueous phase” value (Cyp7b [3]) of the same molecule?
A: efficiently released

Q: What about the Km (Cyp7b [2]; [6]) of the same molecule?
A: 3.6 µM

Q: And the Vmax (Cyp7b [2]; [6])?
A: 34 pmol/min/mg

B1: Cyp7b (Mus musculus) (protein)
chain: T1 sequence (Q60991 1-507)
Q: B1 was tested. Which Km [4] did it give?
A: 13.3 µM

Q: What about the Vmax [4] of the same molecule?
A: 288 pmol/min/mg
